In US20070135462A1, “Combination therapy” (priority 2004, published 2007):

Assays:
[1] = system: HUVEC; test: HUVEC assay, VEGF-stimulated endothelial cell proliferation; assay type: cell-based; conditions: Homo sapiens, read-out: IC50 for inhibition of VEGF-stimulated endothelial cell proliferation
[2] = system: HUVEC; test: HUVEC assay, basal endothelial cell proliferation; assay type: cell-based; conditions: Homo sapiens, read-out: IC50 for inhibition of basal endothelial cell proliferation
[3] = system: Calu-6 tumour xenograft; test: Calu-6 tumour xenograft in vivo solid tumour model; conditions: once-daily oral, 28 days
[4] = system: range of models; test: anti-tumour activity in a range of models; assay type: in vivo; conditions: once-daily oral administration

In the case of COc1cc2c(Oc3ccc4[nH]c(C)cc4c3F)ncnc2cc1OCCCN1CCCC1 [AZD2171, 4-(4-fluoro-2-methyl-1H-indol-5-yloxy)-6-methoxy-7-(3-(pyrrolidin-1-yl)propoxy)quinazoline], the IC50 [1] is reported as 0.4 ± 0.2 nM, the IC50 [2] is reported as greater than 500 nM and the “inhibition of growth of Calu-6 tumour xenograft” value (“inhibition” below) ([3]; 1.5 mg/kg/day, P<0.01) is reported as 49%. For the same molecule, the “inhibition” value ([3]; 3 mg/kg/day, P<0.0001) was 69%, the “inhibition” value ([3]; 6 mg/kg/day, P<0.0001) was 91% and the anti-tumour activity [4] was “broad-spectrum anti-tumour activity”.
